Results published in US12291515B2, “Pyrrolidine derivative and use thereof” (Rushi Biotech (Hangzhou) Co., Ltd, priority 2021, dated 2025).

How the values were obtained:
Format in all cases: cell-based
[1] = system: Human lung adenocarcinoma cell A549; experiment: CCK-8 cell proliferation assay, A549; details: A549 cells, CCK-8, 24 hrs with drug, OD 450 nm
Experimental: (§1) The effect of samples on the proliferation of human tumor cells in vitro was determined by CCK-8 cell proliferation assay.
(§2) The cells were assayed through a method including the following steps:
(§3) 1) The cells were digested, counted, and prepared into a cell suspension in a corresponding culture medium (Table 1) (5×10^4 cells/ml for CFPAC-1 and RPMI 8226, and 3.5×10^4 cells/ml for rest cells). The cell suspension was added to each well of a 96-well plate in 100 μl well.
(§4) 2) Then the 96-well plate was incubated for 24 hrs in an incubator at 37° C. and 5% CO2.
(§5) 3) The drug was diluted with the culture medium to the required working concentration. 100 μl of the corresponding drug containing medium was added to each well. A negative control group (added with drug-free culture medium) was also set.
(§6) 4) Then the 96-well plate was incubated for 24 hrs in an incubator at 37° C. and 5% CO2.
(§7) 5) The 96-well plate was stained with CCK-8, and The OD value was determined at λ=450 nm.
(§8) a) 10 μl of CCK-8 was added to each well, and incubated in the incubator for another 2-3 hrs.
(§9) b) The content was mixed uniformly by shaking gently on a shaker for 10 min, and the bubbles in the 96-well plate were removed.
(§10) 6) The inhibition rate in each group was calculated.

[2] = system: Human gastric cancer cell MKN45; experiment: CCK-8 cell proliferation assay, MKN-45; details: MKN-45 cells, CCK-8, 24 hrs with drug, OD 450 nm
Experimental: as §1, §2, §3, §4, §5, §6, §7, §8, §9, §10

[3] = system: Human colon cancer cell HCT-116; experiment: CCK-8 cell proliferation assay, HCT116; details: HCT116 cells, CCK-8, 24 hrs with drug, OD 450 nm
Experimental: as §1, §2, §3, §4, §5, §6, §7, §8, §9, §10

[4] = system: Human hepatoma cell HepG2; experiment: CCK-8 cell proliferation assay, HepG2; details: HepG2 cells, CCK-8, 24 hrs with drug, OD 450 nm
Experimental: as §1, §2, §3, §4, §5, §6, §7, §8, §9, §10

[5] = system: Human multiple myeloma cell RPMI 8226; experiment: CCK-8 cell proliferation assay, RPMI8226; details: RPMI8226 cells, CCK-8, 24 hrs with drug, OD 450 nm
Experimental: as §1, §2, §3, §4, §5, §6, §7, §8, §9, §10

[6] = system: Human esophageal cancer cell TE-1; experiment: CCK-8 cell proliferation assay, TE-1; details: TE-1 cells, CCK-8, 24 hrs with drug, OD 450 nm
Experimental: as §1, §2, §3, §4, §5, §6, §7, §8, §9, §10

[7] = system: Human pancreatic cancer cell CFPAC-1; experiment: CCK-8 cell proliferation assay, CFPAC-1; details: CFPAC-1 cells, CCK-8, 24 hrs with drug, OD 450 nm
Experimental: as §1, §2, §3, §4, §5, §6, §7, §8, §9, §10

Structure (SMILES)	IC50 [1] [nM]	IC50 [2] [nM]	IC50 [3] [nM]	IC50 [4] [nM]	IC50 [5] [nM]	IC50 [6] [nM]	IC50 [7] [nM]
COc1cccc(OC)c1C(=O)N1CCC(CCCCCNC(=O)Nc2cccnc2)C1 (stereo not drawn) [BSS-TP033, 1-(5-(1-(2,6-dimethoxybenzoyl)pyrrolidin-3-yl)pentyl)-2-(3-pyridinyl) urea]	64	65	72	82	53	87	56
O=C(NCCCCC[C@H]1CCN(C(=O)c2cccs2)C1)Nc1ccncc1 [BSS-TP039, (S)-1-(5-(1-(2-thienylformyl)pyrrolidin-3-yl)pentyl)-2-(4-pyridinyl)urea]	46	47	71	60	38	73	25
O=C(NCCCCC[C@@H]1CCN(C(=O)c2cccs2)C1)Nc1ccncc1 [BSS-TP040, (R)-1-(5-(1-(2-thienylformyl)pyrrolidin-3-yl)pentyl)-2-(4-pyridinyl)urea]	43	31	52	49	24	65	29
O=C(NCCCCCCC1CCN(C(=O)c2ccccc2)C1)Nc1ccncc1 (stereo not drawn) [BSS-TP101, 1-(6-(1-(benzoyl)pyrrolidin-3-yl)hexyl)-2-(4-pyridinyl)urea]	35	39	22	50	21	64	29
COc1cccc(OC)c1C(=O)N1CCC(CCCCCCNC(=O)Nc2ccncc2)C1 (stereo not drawn) [BSS-TP102, 1-(6-(1-(2,6-dimethoxybenzoyl)pyrrolidin-3-yl)hexyl)-2-(4-pyridinyl) urea]	23	30	27	35	10	29	13
O=C(NCCCCCCC1CCN(C(=O)c2cccs2)C1)Nc1ccncc1 (stereo not drawn) [BSS-TP103, 1-(6-(1-(2-thienylformyl)pyrrolidin-3-yl)hexyl)-2-(4-pyridinyl)urea]	28	36	88	43	15	50	31
O=C(NCCCCCCC1CCN(C(=O)C2CCCN2)C1)Nc1ccncc1 (stereo not drawn) [BSS-TP106, 1-(6-(1-(2-pyrrolidinylformyl)pyrrolidin-3-yl)hexyl)-2-(4-pyridinyl)urea]	68	58	66	119	47	97	46
O=C(NCCCCCCC1CCN(C(=O)C2CCCO2)C1)Nc1ccncc1 (stereo not drawn) [BSS-TP107, 1-(6-(1-(2-tetrahydrofurylformyl)pyrrolidin-3-yl)hexyl)-2-(4-pyridinyl)urea]	55	53	76	137	51	82	58
O=C(NCCCCCCC1CCN(C(=O)C2CCCS2)C1)Nc1ccncc1 (stereo not drawn) [BSS-TP108, 1-(6-(1-(2-tetrahydrothienylformyl)pyrrolidin-3-yl)hexyl)-2-(4-pyridinyl)urea]	49	49	59	92	32	73	41
O=C(NCCCCCCC1CCN(C(=O)c2ccccc2)C1)Nc1cccnc1 (stereo not drawn) [BSS-TP109, 1-(6-(1-(benzoyl)pyrrolidin-3-yl)hexyl)-2-(3-pyridinyl)urea]	29	53	47	71	23	88	26
O=C(NCCCCCCC1CCN(C(=O)c2cc3ccccc3[nH]2)C1)Nc1ccncc1 (stereo not drawn) [BSS-TP121, 1-(6(1-(2-indolylformyl)pyrrolidin-3-yl)hexyl)-2-(4-pyridinyl)urea]	69	32	83	72	52	74	51

Further lines, results first:

IC50 [1] [nM]	IC50 [2] [nM]	IC50 [3] [nM]	IC50 [4] [nM]	IC50 [5] [nM]	IC50 [6] [nM]	IC50 [7] [nM]	Structure (SMILES)
73	74	69	99	58	117	39	COc1cccc(OC)c1C(=O)N1CCC(CCCCCNC(=O)Nc2cc(F)nc(F)c2)C1 (stereo not drawn) [BSS-TP032]
39	47	66	81	29	73	35	O=C(NCCCCCC1CCN(C(=O)c2ccco2)C1)Nc1cc(F)nc(F)c1 (stereo not drawn) [BSS-TP035]
58	53	78	126	49	94	42	O=C(NCCCCCC1CCN(C(=O)c2cc3ccccc3o2)C1)Nc1cc(F)nc(F)c1 (stereo not drawn) [BSS-TP036]
33	46	57	75	29	62	33	O=C(NCCCCCCC1CCN(C(=O)c2ccc[nH]2)C1)Nc1ccncc1 (stereo not drawn) [BSS-TP104, 1-(6-(1-(2-pyrrolylformyl)pyrrolidin-3-yl)hexyl)-2-(4-pyridinyl)urea]
43	32	53	61	20	76	37	O=C(NCCCCCCC1CCN(C(=O)c2ccco2)C1)Nc1ccncc1 (stereo not drawn) [BSS-TP105, 1-(6-(1-(furoyl)pyrrolidin-3-yl)hexyl)-2-(4-pyridinyl)urea]
44	75	73	116	56	109	52	O=C(NCCCCCCC1CCN(C(=O)c2cccs2)C1)Nc1cccnc1 (stereo not drawn) [BSS-TP110, 1-(6-(1-(2-thienylformyl)pyrrolidin-3-yl)hexyl)-2-(3-pyridinyl)urea]
61	77	62	87	53	133	42	O=C(NCCCCCCC1CCN(C(=O)c2ccco2)C1)Nc1cccnc1 (stereo not drawn) [BSS-TP111, 1-(6-(1-(furoyl)pyrrolidin-3-yl)hexyl)-2-(3-pyridinyl)urea]
52	59	78	81	42	93	36	O=C(NCCCCCCC1CCN(C(=O)c2ccc[nH]2)C1)Nc1cccnc1 (stereo not drawn) [BSS-TP112, 1-(6-(1-(2-pyrrolylformyl)pyrrolidin-3-yl)hexyl)-2-(3-pyridinyl)urea]
33	42	41	83	38	77	38	O=C(NCCCCCCC1CCN(C(=O)c2ccccc2)C1)Nc1ccnc(F)c1 (stereo not drawn) [BSS-TP113]
49	51	85	72	39	76	33	O=C(NCCCCCCC1CCN(C(=O)c2ccc[nH]2)C1)Nc1ccnc(F)c1 (stereo not drawn) [BSS-TP114]
51	40	68	79	46	88	39	O=C(NCCCCCCC1CCN(C(=O)c2ccco2)C1)Nc1ccnc(F)c1 (stereo not drawn) [BSS-TP115]
39	79	83	81	31	69	47	O=C(NCCCCCCC1CCN(C(=O)c2cccs2)C1)Nc1ccnc(F)c1 (stereo not drawn) [BSS-TP116]
58	45	53	49	36	47	37	O=C(NCCCCCCC1CCN(C(=O)c2ccccc2)C1)Nc1cc(F)nc(F)c1 (stereo not drawn) [BSS-TP117]
59	62	61	64	24	81	42	O=C(NCCCCCCC1CCN(C(=O)c2ccco2)C1)Nc1cc(F)nc(F)c1 (stereo not drawn) [BSS-TP118]
72	61	50	83	43	87	38	O=C(NCCCCCCC1CCN(C(=O)c2cccs2)C1)Nc1cc(F)nc(F)c1 (stereo not drawn) [BSS-TP119]
47	42	66	53	28	49	35	O=C(NCCCCCCC1CCN(C(=O)c2ccc[nH]2)C1)Nc1cc(F)nc(F)c1 (stereo not drawn) [BSS-TP120]
